Where two headings read alike, the source gives them in different places.
Experiments:
L1210 leukemia = assay: Survival time of mice bearing the L1210 leukemia; type: in vivo, mouse (CDF-1 mice); conditions: for Av. Change wt. %: L1210 mice; for response vs control in vivo at 50 mg/kg / response vs control in vivo at 100 mg/kg / response vs control in vivo at 150 mg/kg: Mus musculus, read-out: % T/C; for Antineoplastic Activity (max. % T/C from Table III): Table II, L1210 leukemia; for activity against the L1210 leukemia (in words): mouse, in vivo; for Max. % T/C L1210 Leukemia: Table V; for maximum % T/C, L1210 leukemia: comparison compounds
Source text: The ascites cell forms of the L1210 leukemia, Sarcoma 180 and P388 leukemia were propagated in CDF-1 mice. […] Mice were weighed during the course of the experiments, and the percentage change in body weight from the onset to termination of therapy was used as an indication of host toxicity.
Each value represents the average of 5 animals per group.

[1] = Alkylation of 4-(4-nitrobenzyl)pyridine, absorbance at 540 nm (modified Wheeler and Chumley); conditions: for Relative Alkylating Activity: (O.D. test sample/O.D. compound 8) × 100, pH 7.4, 37°C, 540 nm; for absorbance at 540 nm (alkylating activity): comparison compounds
Protocol: Since compounds 1-13 were conceived as prodrugs of the alkylating species (II), representative compounds of this class, viz. 1-6, 8 and 10 were tested for alkylating ability using a modification of the method of Wheeler and Chumley. This method measured the absorbance at 540 nm of the alkylated product of 4-(4-nitrobenzyl)pyridine.
^a A solution of the test sample (12 micromoles) in 1 ml of acetone,
ml of distilled water and 1 ml of TrisHCl buffer (pH 7.4) was incubated
with 4(4-nitrobenzyl) pyridine (148 micromoles in 0.4 ml of acetone) for
hr at 37°C. Following additon of 2 ml of acetone and 1.5 ml of 0.2
M NaOH, the material was extracted with 5 ml of ethyl acetate. The
absorbance was determined at 540 nm 30 seconds after the addition of the
sodium hydroxide solution. The greater the absorbance value, the greater
the degree of alkylation
^b Relative Alkylating activity = (O.D. for test sample/O.D. for […]

B16 melanoma = assay: Survival time of mice bearing the B16 melanoma; type: in vivo, mouse (C57B1 mice); conditions: for Max. % T/C: Table IV, B16, at optimum effective daily dose; for Av. Change in wt., %: at optimum effective daily dose, B16 mice; for Max. % T/C B16 Melanoma: Table V
Protocol: This tumor was propagated in C57B1mice. Transplantation was carried out by removing tumors from donor mice bearing 14-day subcutaneous tumor growths. The tissue was fragmented to make a well-dispersed cellular suspension and diluted with Fischer's medium without serum so that one gram of tissue was suspended in 5 ml of solution. A portion (0.2 ml) of the resulting cell suspension was injected intraperitoneally into each recipient animal. All compounds were administered over a wide range of dosage levels by intraperitoneal injection, beginning 24 hours after tumor implantation, once daily for 6 consecutive days. The test compounds were injected as fine suspensions following homogenization in 2 to 3 drops of 20% aqueous Tween 80 and then made up to volume with isotonic saline. […] Mice were weighed during the course of the experiments, and the percent change in body weight from onset to termination of therapy was used as an indication of drug toxicity. Determination of the sensitivity of neoplasms to these agents was based on the prolongation of survival time afforded by the drug treatments.
^a Administered once daily for six consecutive days, beginnign 24
hours after tumor transplanation, with 5 animals being used per group.
^b Average change in body weight from onset to termination of therapy
^c % T/C = average survival time of treated/control animals ×
100. Each value represents the average of 5 animals per group.

[2] = 50 mg/kg once daily for six days
[3] = 100 mg/kg once daily for six days
[4] = 150 mg/kg once daily for six days
[5] = 144 h, 50 mg/kg once daily for six days, L1210
[6] = 144 h, 100 mg/kg once daily for six days, L1210
[7] = 144 h, 150 mg/kg once daily for six days, L1210

Cc1ccc(S(=O)(=O)N(C)NS(=O)(=O)c2ccccc2)cc1 [Compound 1, N'-benzenesulfonyl-N-methyl-N-(p-toluenesulfonyl)hydrazine]
Average Survival Time of Treated Animals, days ± SE (L1210 leukemia; [2]): 15.0 ± 1.4 days | Av. Change wt. % (L1210 leukemia; [2]): +2.0% | Average Survival Time of Treated Animals, days ± SE (L1210 leukemia; [3]): 10.6 ± 0.2 days | Av. Change wt. % (L1210 leukemia; [3]): +5.4% | Average Survival Time of Treated Animals, days ± SE (L1210 leukemia; [4]): 10.8 ± 0.5 days | Av. Change wt. % (L1210 leukemia; [4]): -2.7% | response vs control in vivo at 50 mg/kg (L1210 leukemia; [5]): 163% | response vs control in vivo at 100 mg/kg (L1210 leukemia; [6]): 115% | response vs control in vivo at 150 mg/kg (L1210 leukemia; [7]): 117% | Antineoplastic Activity (max. % T/C from Table III) (L1210 leukemia): 163 % T/C | Relative Alkylating Activity [1]: 118 | Max. % T/C (B16 melanoma): 168 % T/C | Av. Change in wt., % (B16 melanoma): +8.5%

COc1ccc(S(=O)(=O)NN(C)S(=O)(=O)c2ccc(C)cc2)cc1 [Compound 2, N'-(p-methoxybenzenesulfonyl)-N-methyl-N-(p-toluenesulfonyl)hydrazine]
Average Survival Time of Treated Animals, days ± SE (L1210 leukemia; [2]): 10.8 ± 0.6 days | Av. Change wt. % (L1210 leukemia; [2]): +7.7% | Average Survival Time of Treated Animals, days ± SE (L1210 leukemia; [3]): 15.0 ± 2.3 days | Av. Change wt. % (L1210 leukemia; [3]): +7.8% | Average Survival Time of Treated Animals, days ± SE (L1210 leukemia; [4]): 13.2 ± 2.2 days | Av. Change wt. % (L1210 leukemia; [4]): +2.9% | response vs control in vivo at 50 mg/kg (L1210 leukemia; [5]): 117% | response vs control in vivo at 100 mg/kg (L1210 leukemia; [6]): 163% | response vs control in vivo at 150 mg/kg (L1210 leukemia; [7]): 143% | Antineoplastic Activity (max. % T/C from Table III) (L1210 leukemia): 163 % T/C | Relative Alkylating Activity [1]: 95 | Max. % T/C (B16 melanoma): 200 % T/C | Av. Change in wt., % (B16 melanoma): +9.1%

Cc1ccc(S(=O)(=O)N(C)NS(=O)(=O)c2ccc(Cl)cc2)cc1 [Compound 3, N'-(p-chlorobenzenesulfonyl)-N-methyl-N-(p-toluenesulfonyl)hydrazine]
Average Survival Time of Treated Animals, days ± SE (L1210 leukemia; [2]): 17.4 ± 1.4 days | Av. Change wt. % (L1210 leukemia; [2]): +3.7% | Average Survival Time of Treated Animals, days ± SE (L1210 leukemia; [3]): 10.8 ± 0.6 days | Av. Change wt. % (L1210 leukemia; [3]): +10.0% | Average Survival Time of Treated Animals, days ± SE (L1210 leukemia; [4]): 11.2 ± 1.3 days | Av. Change wt. % (L1210 leukemia; [4]): +6.0% | response vs control in vivo at 100 mg/kg (L1210 leukemia; [6]): 117% | response vs control in vivo at 150 mg/kg (L1210 leukemia; [7]): 122% | response vs control in vivo at 50 mg/kg (L1210 leukemia; L1210, 144 h): 189% | Antineoplastic Activity (max. % T/C from Table III) (L1210 leukemia): 189 % T/C | activity against the L1210 leukemia (in words) (L1210 leukemia): active against the L1210 leukemia | rate of decomposition to a reactive species (in words) [1]: decomposed less rapidly than compound 10 | Relative Alkylating Activity [1]: 135 | Max. % T/C (B16 melanoma): 171 % T/C | Av. Change in wt., % (B16 melanoma): +2.9%

COc1ccc(S(=O)(=O)N(C)NS(=O)(=O)c2ccc(C)cc2)cc1 [Compound 4]
Average Survival Time of Treated Animals, days ± SE (L1210 leukemia; [2]): 10.2 ± 0.5 days | Av. Change wt. % (L1210 leukemia; [2]): +12.6% | Average Survival Time of Treated Animals, days ± SE (L1210 leukemia; [3]): 10.2 ± 0.2 days | Av. Change wt. % (L1210 leukemia; [3]): +14.8% | Average Survival Time of Treated Animals, days ± SE (L1210 leukemia; [4]): 10.4 ± 0.2 days | Av. Change wt. % (L1210 leukemia; [4]): +9.8% | response vs control in vivo at 50 mg/kg (L1210 leukemia; [5]): 111% | response vs control in vivo at 100 mg/kg (L1210 leukemia; [6]): 111% | response vs control in vivo at 150 mg/kg (L1210 leukemia; [7]): 113% | Antineoplastic Activity (max. % T/C from Table III) (L1210 leukemia): 113 % T/C | activity against the L1210 leukemia (in words) (L1210 leukemia): virtually inactive | alkylating activity / absorbance (in words) [1]: lowest | Relative Alkylating Activity [1]: 82 | Max. % T/C (B16 melanoma): 151 % T/C | Av. Change in wt., % (B16 melanoma): -14.0%

COc1ccc(S(=O)(=O)N(C)NS(C)(=O)=O)cc1 [Compound 29]
Max. % T/C L1210 Leukemia (L1210 leukemia): 274 % T/C | activity against the L1210 leukemia (in words) (L1210 leukemia): highest increases in survival time | Max. % T/C B16 Melanoma (B16 melanoma): 204 % T/C

CN(NS(=O)(=O)c1ccccc1)S(=O)(=O)c1ccc(Cl)cc1 [Compound 31, N'-benzenesulfonyl-N-(p-chlorobenzenesulfonyl)-N-methylhydrazine]
Max. % T/C L1210 Leukemia (L1210 leukemia): 111 % T/C | Max. % T/C B16 Melanoma (B16 melanoma): 146 % T/C

COc1ccc(S(=O)(=O)NN(C)S(=O)(=O)c2ccc(Cl)cc2)cc1 [Compound 32, N-(p-chlorobenzenesulfonyl)-N'-(p-methoxybenzenesulfonyl)-N-methylhydrazine]
Max. % T/C L1210 Leukemia (L1210 leukemia): 130 % T/C | Max. % T/C B16 Melanoma (B16 melanoma): 153 % T/C

CN(NS(=O)(=O)c1ccc2ccccc2c1)S(=O)(=O)c1ccc(Cl)cc1 [Compound 33, N-(p-chlorobenzenesulfonyl)-N-methyl-N'-(2-naphthalenesulfonyl)hydrazine]
Max. % T/C L1210 Leukemia (L1210 leukemia): 109 % T/C | Max. % T/C B16 Melanoma (B16 melanoma): 153 % T/C

CN(NS(C)(=O)=O)S(=O)(=O)c1ccc(Cl)cc1 [Compound 35, N-(p-chlorobenzenesulfonyl)-N'-methanesulfonyl-N-methylhydrazine]
Max. % T/C L1210 Leukemia (L1210 leukemia): 167 % T/C | Max. % T/C B16 Melanoma (B16 melanoma): 194 % T/C

COc1ccc(S(=O)(=O)NN(C)S(=O)(=O)c2ccc(Br)cc2)cc1 [Compound 39, N-(p-bromobenzenesulfonyl)-N'-(p-methoxybenzene-sulfonyl)-N-methylhydrazine]
Max. % T/C L1210 Leukemia (L1210 leukemia): 165 % T/C | Max. % T/C B16 Melanoma (B16 melanoma): 167 % T/C

CN(NS(=O)(=O)c1ccc(Br)cc1)S(=O)(=O)c1ccc(Br)cc1 [Compound 41, N,N'-bis(p-bromobenzenesulfonyl)-N-methylhydrazine]
Max. % T/C L1210 Leukemia (L1210 leukemia): 183 % T/C | Max. % T/C B16 Melanoma (B16 melanoma): 161 % T/C

CN(NS(=O)(=O)c1ccccc1)S(=O)(=O)c1ccc2ccccc2c1 [Compound 45, N'-benzenesulfonyl-N-methyl-N-(2naphthalenesulfonyl)hydrazine]
Max. % T/C L1210 Leukemia (L1210 leukemia): 106 % T/C | Max. % T/C B16 Melanoma (B16 melanoma): 163 % T/C

CN(NS(=O)(=O)c1ccccc1)S(=O)(=O)Cc1ccccc1 [Compound 49, N'-benzenesulfonyl-N-benzylsulfonyl-N-methylhydrazine]
Max. % T/C L1210 Leukemia (L1210 leukemia): 185 % T/C | Max. % T/C B16 Melanoma (B16 melanoma): 208 % T/C

Cc1ccc(S(=O)(=O)NN(C)S(=O)(=O)Cc2ccccc2)cc1 [Compound 50]
Max. % T/C L1210 Leukemia (L1210 leukemia): 144 % T/C | Max. % T/C B16 Melanoma (B16 melanoma): 206 % T/C

CN(NS(=O)(=O)c1ccc(Cl)cc1)S(=O)(=O)Cc1ccccc1 [Compound 52]
Max. % T/C L1210 Leukemia (L1210 leukemia): 128 % T/C | Max. % T/C B16 Melanoma (B16 melanoma): 184 % T/C

Cc1ccc(S(=O)(=O)NN(C)S(=O)(=O)c2ccc(I)cc2)cc1 [Compound 59]
Max. % T/C L1210 Leukemia (L1210 leukemia): 123 % T/C | Max. % T/C B16 Melanoma (B16 melanoma): 176 % T/C

O=S(=O)(NNS(=O)(=O)c1ccccc1)c1ccccc1 [N,N'-bis(benzenesulfonyl )hydrazine, reference compound]
maximum % T/C, L1210 leukemia (L1210 leukemia): 101 % T/C | activity against the L1210 leukemia (in words) (L1210 leukemia): inactive against the L1210 leukemia | activity against the L1210 leukemia (in words) (L1210 leukemia; listed as N,N'-bis(benzenesulfonyl)hydrazine): inactivity | alkylating activity / absorbance (in words) [1]: negligible alkylating activity | absorbance at 540 nm (alkylating activity) [1]: 0

CN(NC(=O)c1ccccc1)C(=O)c1ccccc1 [N,N'-dibenzoyl-N-methylhydrazine, reference compound]
maximum % T/C, L1210 leukemia (L1210 leukemia): 97 % T/C | activity against the L1210 leukemia (in words) (L1210 leukemia): inactive against the L1210 leukemia | alkylating activity / absorbance (in words) [1]: negligible alkylating activity | absorbance at 540 nm (alkylating activity) [1]: 10

Source: patent publication US4892887A, “N,N'-bis(sulfonyl)hydrazines having antineoplastic activity” (Yale University, priority 1988, dated 1990)
